Assay: Stability of the compounds and of the liposomes (statement in words)
Type: physicochemical
Settings: compound itself

SMILES | stability of the compound
CCCCCCCCCCCCCCCCN(CCCCCCCCCCCCCCCC)CCOCCOC(=O)C(N)Cc1cnc[nH]1 (centres unmarked) [Example 1] | very stable
CCCCCCCCCCCCCCCCN(CCCCCCCCCCCCCCCC)C(=O)COCCOCCOCCNC(=O)C(N)Cc1cnc[nH]1 (centres unmarked) [Example 3] | very stable
